Experimental data from patent US12274830B2, “Nitric oxide inhalation therapy for infants with bronchiolitis” (BEYOND AIR LTD, priority 2015, dated 2025).
Entries after “also recorded” stand apart in the source; their conditions may differ.

Key:
E. coli = settings: 200 ppm gNO; cited from earlier work
Serracia sp. = settings: 200 ppm gNO; cited from earlier work
[1] = test system: infants with acute bronchiolitis; assay: Safety and tolerability of intermittent inhalations of 160 ppm NO in hospitalized infants with acute bronchiolitis (randomized double blind study); format: in vivo, human
Description: The study was conducted at the Soroka University Medical Center in southern Israel, and was approved by the Institutional and National Human Ethics Committee. A detailed study overview is attached as an online supplement. This study is registered with clinical trial number NCT01768884.
The study was a randomized, prospective, single center, double blind study of 2-11 month old hospitalized infants with acute bronchiolitis (FIG. 1).
Subjects were screened within 4 hours of admission and randomized (1:1) to receive intermittent inhalations of 160 ppm NO along with standard treatment (NO group) or intermittent inhalations of 02/air mixture and standard treatment (control group), for a maximum of 25 inhalations.
Standard Supportive Treatment: This treatment included humidified oxygen, nasal suction when needed and hydration (oral, intra-venous or nasogastric tube fluids). The use of other concomitant medications was allowed, according to the ward's common practice.
Nitric Oxide Treatment: Subjects spontaneously inspired 160 ppm NO in fixed flow mode via a facemask. Nitric Oxide (Maxima, Israel) of 800 ppm (0.08%) NO balanced with 99.999% purity Nitrogen (N2), was titrated into the O2/air inspiratory delivery line. Inhaled NO, NO2 and O2 concentrations in the patient breathing circuit were continuously monitored using dedicated gas analyzers. (AeroNox, International medical, USA).
Primary Outcome: Safety measures, included % MetHb and NO2 production associated with NO treatment, bleeding episodes and any other adverse event (AE). Study threshold for NO2 and MetHb was set at 5 ppm and 5%, respectively.
The primary outcome was safety and tolerability of intermittent inhalations of 160 ppm NO, given to infants 2 to 11 months with acute bronchiolitis. Safety measures included % MetHb associated with NO treatment (safety threshold was determined as >5% for MetHb and >5 ppm for NO2), as well as any other AEs. Tolerability measures included the proportions of subjects who prematurely discontinued the study for any reason, and the proportion of subjects who prematurely discontinued the treatment due to severe SAEs.
The research staff was divided into “blinded” and “unblinded” groups. The unblinded staff administered the inhalations to the infants and monitored % MetHb, % SpO2 (co-oximeter, RAD57/RAD 87, Masimo Corporation, USA), fractional inhaled O2 (FiO2), NO, NO2 levels. The blinded group included the primary investigator and all other staff directly involved with patient care. Safety threshold for NO2 and MetHb was set at 5 ppm and 5%, respectively. It should be emphasized that both treatments, NO/O2 (NO treatment) as well as O2/air mixture (control) were given via the same device, therefore, parents were also blinded to the treatment arm.
Each patient was given 5 inhalations a day of NO (treatment group) or oxygen (control group), along with the standard supportive treatment, for a maximum of 25 inhalations (based on phase I safety data). Each participant was examined and evaluated using the severity symptom score by a blinded pediatricians every […] (9 am and 3 pm). When the room-air SpO2 reached 92%, and the score was ≤5, and the patient was assessed as “ready for discharge”, the treatment was discontinued.
The data were managed and analyzed by independent statisticians group using the SAS version 9.1 (SAS Institute, Cary, North Carolina). […]

[2] = NO Group (N = 21), Methemoglobin >5%
[3] = NO Group (N = 21), NO2 concentration >5 ppm
[4] = NO Group (N = 21), Oxyhemoglobin <89%

[N]=O [NO, nitric oxide]
+2.5 Log10 (E. coli): 4.2 hours
LD100 (E. coli): 5 h
Latent Period (E. coli): 3 h
+2.5 Log10 (Serracia sp.): 4.9 hours
LD100 (Serracia sp.): 6 h
Latent Period (Serracia sp.): 4 h
Bleeding episodes or deaths during the study ([1]; 160 ppm NO intermittent inhalation): no bleeding episodes or deaths; also recorded: no bleeding episodes
NO2 elevations and clinical evidence of toxicity ([1]; 30 minutes of inhaled 160 ppm NO five time a day): neither associated with significant elevations in NO2 nor clinical evidence of toxicity; also recorded: no events of significant NO2 elevations
Safety and tolerability versus control (standard supportive treatment) ([1]; ITT, PP): no statistically significant safety and tolerability differences; also recorded: comparable to those in the standard-supportive treatment
Any AE, events (E) ([1]; NO Group (N = 21)): 22 E
Any serious AE, events (E) ([1]; NO Group (N = 21)): 4 E
Any serious AE, subjects n (%) ([1]; NO Group (N = 21)): 4 (19.0%) n (%)
Any serious treatment-related AE, events (E) ([1]; NO Group (N = 21)): 0 E
Any severe AE, events (E) ([1]; NO Group (N = 21)): 1 E
Any severe AE, subjects n (%) ([1]; NO Group (N = 21)): 1 (4.8%) n (%)
Any treatment-related AE, events ([1]; NO Group (N = 21)): 6 E
Death, events (E) ([1]; NO Group (N = 21)): 0 E
Death, subjects n (%) ([1]; NO Group (N = 21)): 0 (0.0%) n (%)
Treatment withdrawal due to AE, events (E) ([1]; NO Group (N = 21)): 1 E
Treatment withdrawal due to AE, subjects n (%) ([1]; NO Group (N = 21)): 1 (4.8%) n (%)
Treatment-related AE: Blood and Lymphatic System Disorders, Events ([1]; NO Group (N = 21)): 5 Events
Treatment-related AE: Investigations, Events ([1]; NO Group (N = 21)): 1 Events
Treatment-related AE: Blood and Lymphatic System Disorders, subjects n (%) ([1]; NO Group (N = 21), MedDRA SOC): 4 (19.0%) n (%)
Treatment-related AE: Investigations, subjects n (%) ([1]; NO Group (N = 21), MedDRA SOC): 1 (4.8%) n (%)
Treatment-related AE: Methaemoglobinaemia, Events [1, 2]: 5 Events
Treatment-related AE: Methaemoglobinaemia, subjects n (%) [1, 2]: 4 (19.0%) n (%)
Treatment-related AE: NO2 increase, Events [1, 3]: 1 Events
Treatment-related AE: NO2 increase, subjects n (%) [1, 3]: 1 (4.8%) n (%)
Treatment-related AE: Oxyemoglobin decreased, Events [1, 4]: 1 Events
Treatment-related AE: Oxyemoglobin decreased, subjects n (%) [1, 4]: 1 (4.8%) n (%)
Any AE, subjects n (%) ([1]; NO Group (N = 21), intermittent 160 ppm NO + standard treatment): 10 (47.6%) n (%)
Any treatment-related AE, subjects n (%) ([1]; NO Group (N = 21), possibly or probably related to study treatment): 5 (23.8%) n (%)
Subjects in whom MetHb values >5% were observed more than once ([1]; NO group): 3 subjects
Subjects with MetHb measurement >5% during the study treatment period, n (%) ([1]; NO group): 6 (28.5%) n (%)
MetHb peak value at end of inhalation (mean) ([1]; NO group, each NO inhalation): 3.3±0.9%
Maximum MetHb value ([1]; NO group, in two subjects): 5.6%
Subjects who discontinued the study/study treatment, n (%) ([1]; NO group, tolerability): 2 (9.5%) n (%)
SpMet level of infants undergoing the method ([1]; general statement referring to the Examples): ≤ 1%
Cumulative effect / accumulation of MetHb over the treatment period ([1]; pre- vs end of inhalation MetHb levels): no cumulative effect; also recorded: no accumulation of MetHb
